# Experimental data reported in patent US12582722B2, “Bifunctional compounds for degrading BTK via ubiquitin proteosome pathway” (NURIX THERAPEUTICS, INC., priority 2019, dated 2026).
# Target: T1, BTK (Homo sapiens, UniProt Q06187)
# T1 construct: endogenous in cells; host or cells: Ramos (ATCC CRL-1596)
# Experiment: Cellular BTK HTRF Assay (BTK degradation in Ramos cells)
# Assay type: cell-based
# Conditions: four hours incubation, 37° C., BTK levels relative to DMSO-treated cells
# Method: Ramos (CRL-1596) cells were obtained from American Type Culture Collection and were grown in RPMI-1640 media (ATCC, 30-2001) supplemented with 10% heat-inactivated FBS (Corning Premium Fetal Bovine Serum from Fisher, MT35015CV).
# Compounds of the present invention were added to 50,000 Ramos cells in round-bottom 96 well plates with a final DMSO concentration of […] and were incubated at 37° C., 5% CO2 for four hours. BTK levels were determined using Cisbio Total-BTK HTRF ([…] Time-Resolved Fluorescence) kit (63ADK064PEG) according to manufacturer's protocol. Briefly, cells were incubated in 1× supplied lysis buffer for 30 minutes. In an opaque white low volume 96 well plate (Cisbio, 66PL96005), cell lysate was combined with two different specific BTK antibodies, one conjugated with Eu^3+-Cryptate FRET donor and one conjugated with d2 FRET acceptor. Assay controls include wells containing cell lysate with only the Eu^3+-Cryptate FRET donor antibody and wells containing both HTRF antibodies and lysis buffer without cells or control lysate provided by Cisbio. HTRF ratio was calculated as (acceptor signal at 665 nm/donor signal at 620 nm)×10^4. Background HTRF levels were determined from the control well containing the donor, but no acceptor, antibody. Background HTRF levels were subtracted from all samples. Readouts were reported as HTRF levels relative to HTRF levels of DMSO-treated cells. Four-parameter non-linear regressions were performed in GraphPad Prism 7.02 to obtain DC50 values. DC50 values are provided in Table 3, wherein A<7.5 nM, 7.5 nM≤B≤50 nM, and 50 nM<C<500 nM.
# T1 sequence (Q06187 whole entry): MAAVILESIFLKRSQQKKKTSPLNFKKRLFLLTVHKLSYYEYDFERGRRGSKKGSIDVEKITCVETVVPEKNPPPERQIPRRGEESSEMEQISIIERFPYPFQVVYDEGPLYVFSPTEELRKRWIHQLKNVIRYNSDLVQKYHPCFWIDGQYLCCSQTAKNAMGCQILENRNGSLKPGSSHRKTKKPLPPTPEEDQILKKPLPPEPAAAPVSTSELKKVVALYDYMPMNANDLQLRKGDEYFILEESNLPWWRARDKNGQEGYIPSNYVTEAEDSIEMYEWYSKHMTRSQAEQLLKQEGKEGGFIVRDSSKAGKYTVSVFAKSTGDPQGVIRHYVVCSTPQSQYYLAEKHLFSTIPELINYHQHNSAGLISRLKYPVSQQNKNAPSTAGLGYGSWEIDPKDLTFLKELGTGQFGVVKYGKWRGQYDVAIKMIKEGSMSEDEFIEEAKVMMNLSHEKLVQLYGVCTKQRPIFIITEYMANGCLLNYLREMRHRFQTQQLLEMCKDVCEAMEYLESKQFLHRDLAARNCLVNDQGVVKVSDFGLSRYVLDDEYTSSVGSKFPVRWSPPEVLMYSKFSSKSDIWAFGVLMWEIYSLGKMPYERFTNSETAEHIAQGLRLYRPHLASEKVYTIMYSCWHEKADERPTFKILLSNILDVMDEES
row,Structure (SMILES),DC50
1,"CS(=O)(=O)c1ccc(Nc2nc(N3CCC[C@@H](NC(=O)C4CC5CCC(C4)N5CC4CCN(c5ccc6c(c5)C(=O)N(C5CCC(=O)NC5=O)C6=O)CC4)C3)cnc2C(N)=O)cc1 (stereo partly drawn) [Compound 34, (1R,3s,5S)—N—((R)-1-(5-carbamoyl-6-((4-(methylsulfonyl)phenyl)amino)pyrazin-2-yl)piperidin-3-yl)-8-((1-(2-(2,6-dioxopiperidin-3-yl)-1,3-dioxoisoindolin-5-yl)piperidin-4-yl)methyl)-8-azabicyclo[3.2.1]octane-3-carboxamide]",7.5 to 50 nM
2,"CS(=O)(=O)c1ccc(Nc2nc(N3CCC[C@@H](NC(=O)C4CCC5(CC4)CCN(c4ccc6c(c4)C(=O)N(C4CCC(=O)NC4=O)C6=O)CC5)C3)cnc2C(N)=O)cc1 (stereo partly drawn) [Compound 36, N-[(3R)-1-{5-carbamoyl-6-[(4-methanesulfonylphenyl)amino]pyrazin-2-yl}piperidin-3-yl]-3-[2-(2,6-dioxopiperidin-3-yl)-1,3-dioxoisoindol-5-yl]-3-azaspiro[5.5]undecane-9-carboxamide]",< 7.5 nM
3,"Cc1cc(Nc2nc(N3CCC[C@@H](NC(=O)C4CCN(CC5CN(c6ccc7c(c6)C(=O)N(C6CCC(=O)NC6=O)C7=O)C5)CC4)C3)cnc2C(N)=O)sn1 (stereo partly drawn) [Compound 17, 5-[(3R)-3-[1-({1-[2-(2,6-dioxopiperidin-3-yl)-1,3-dioxoisoindol-5-yl]azetidin-3-yl}methyl)piperidine-4-amido]piperidin-1-yl]-3-[(3-methyl-1,2-thiazol-5-yl)amino]pyrazine-2-carboxamide]",< 7.5 nM
4,"Cc1cc(Nc2nc(N3CCC[C@@H](NC(=O)C4CCN(C5CN(Cc6ccc7c(c6)C(=O)N(C6CCC(=O)NC6=O)C7=O)C5)CC4)C3)cnc2C(N)=O)sn1 (stereo partly drawn) [Compound 37, 5-[(3R)-3-[1-(1-{[2-(2,6-dioxopiperidin-3-yl)-1,3-dioxoisoindol-5-yl]methyl}azetidin-3-yl)piperidine-4-amido]piperidin-1-yl]-3-[(3-methyl-1,2-thiazol-5-yl)amino]pyrazine-2-carboxamide]",< 7.5 nM
5,"CS(=O)(=O)c1ccc(Nc2nc(N3CCC[C@@H](NC(=O)N4CCC5(CCN(c6ccc7c(c6)C(=O)N(C6CCC(=O)NC6=O)C7=O)CC5)C4)C3)cnc2C(N)=O)cc1 (stereo partly drawn) [Compound 10, N—((R)-1-(5-carbamoyl-6-((4-(methylsulfonyl)phenyl)amino)pyrazine-2-yl)piperidin-3-yl)-8-(2-(2,6-dioxopiperidin-3-yl)-1,3-dioxoisoindolin-5-yl)-2,8-diazaspiro[4.5]decane-2-carboxamide]",7.5 to 50 nM
6,"Cc1cc(Nc2nc(N3CCC[C@@H](NC(=O)C4CCN(C5CN(c6ccc7c(c6)C(=O)N(C6CCC(=O)NC6=O)C7=O)C5)CC4)C3)cnc2C(N)=O)sn1 (stereo partly drawn) [Compound 38, 5-((3R)-3-(1-(1-(2-(2,6-dioxopiperidin-3-yl)-1,3-dioxoisoindolin-5-yl)azetidin-3-yl)piperidine-4-carboxamido)piperidin-1-yl)-3-((3-methylisothiazol-5-yl)amino)pyrazine-2-carboxamide]",7.5 to 50 nM
7,"Cc1cc(Nc2nc(N3CCC[C@@H](NC(=O)C4CCN(CC5CN(c6ccc7c(c6)C(=O)N(C6CCC(=O)NC6=O)C7=O)C5)C4)C3)cnc2C(N)=O)sn1 (stereo partly drawn) [Compound 16, 5-[(3R)-3-[1-({1-[2-(2,6-dioxopiperidin-3-yl)-1,3-dioxoisoindol-5-yl]azetidin-3-yl}methyl)pyrrolidine-3-amido]piperidin-1-yl]-3-[(3-methyl-1,2-thiazol-5-yl)amino]pyrazine-2-carboxamide]",< 7.5 nM
8,"Cc1cc(Nc2nc(N3CCCC(NC(=O)CCOCCCc4cccc5c4CN(C4CCC(=O)NC4=O)C5=O)C3)cnc2C(N)=O)sn1 (stereo in doubt) [Compound 45, 5-[(3R)-3-(3-{3-[2-(2,6-dioxopiperidin-3-yl)-1-oxo-3H-isoindol-4-yl]propoxy}propanamido)piperidin-1-yl]-3-[(3-methyl-1,2-thiazol-5-yl)amino]pyrazine-2-carboxamide]",50 to 500 nM
9,"CS(=O)(=O)c1ccc(Nc2nc(N3CCC[C@@H](NC(=O)C4CN(CC5CCN(c6ccc7c(c6)C(=O)N(C6CCC(=O)NC6=O)C7=O)CC5)C4)C3)cnc2C(N)=O)cc1 (stereo partly drawn) [Compound 30, 5-((3R)-3-(1-((1-(2-(2,6-dioxopiperidin-3-yl)-1,3-dioxoisoindolin-5-yl)piperidin-4-yl)methyl)azetidine-3-carboxamido)piperidin-1-yl)-3-((4-(methylsulfonyl)phenyl)amino)pyrazine-2-carboxamide]",7.5 to 50 nM
10,"Cn1cc(Nc2nc(N3CCC[C@@H](NC(=O)C4CCN(CC5CCN(c6ccc7c(c6)C(=O)N(C6CCC(=O)NC6=O)C7=O)CC5)CC4)C3)cnc2C(N)=O)cn1 (stereo partly drawn) [Compound 21, 5-((3R)-3-(1-((1-(2-(2,6-dioxopiperidin-3-yl)-1,3-dioxoisoindolin-5-yl)piperidin-4-yl)methyl)piperidine-4-carboxamido)piperidin-1-yl)-3-((1-methyl-1H-pyrazol-4-yl)amino)pyrazine-2-carboxamide]",< 7.5 nM
11,"CS(=O)(=O)c1ccc(Nc2nc(N3CCC[C@@H](NC(=O)CCCCc4ccc5c(c4)C(=O)N(C4CCC(=O)NC4=O)C5)C3)cnc2C(N)=O)cc1 (stereo partly drawn) [Compound 4, 5-[(3R)-3-{5-[2-(2,6-dioxopiperidin-3-yl)-3-oxo-1H-isoindol-5-yl]pentanamido}piperidin-1-yl]-3-[(4-methanesulfonylphenyl)amino]pyrazine-2-carboxamide]",50 to 500 nM
12,"Cc1cc(Nc2nc(N3CCC[C@@H](NC(=O)C4CCN(CC5CCN(c6ccc7c(c6)C(=O)N(C6CCC(=O)NC6=O)C7=O)CC5)C4)C3)cnc2C(N)=O)sn1 (stereo partly drawn) [Compound 15, 5-[(3R)-3-[1-({1-[2-(2,6-dioxopiperidin-3-yl)-1,3-dioxoisoindol-5-yl]piperidin-4-yl}methyl)pyrrolidine-3-amido]piperidin-1-yl]-3-[(3-methyl-1,2-thiazol-5-yl)amino]pyrazine-2-carboxamide]",< 7.5 nM
13,"CS(=O)(=O)c1ccc(Nc2nc(N3CCC[C@@H](NC(=O)OCCCCCOc4ccc5c(c4)C(=O)N(C4CCC(=O)NC4=O)C5=O)C3)cnc2C(N)=O)cc1 (stereo partly drawn) [Compound 2, 5-((2-(2,6-dioxopiperidin-3-yl)-1,3-dioxoisoindolin-5-yl)oxy)pentyl ((R)-1-(5-carbamoyl-6-((4-(methylsulfonyl)phenyl)amino)pyrazin-2-yl)piperidin-3-yl)carbamate]",7.5 to 50 nM
14,"CS(=O)(=O)c1ccc(Nc2nc(N3CCC[C@@H](NC(=O)C4CC5(C4)CN(Cc4ccc6c(c4)C(=O)N(C4CCC(=O)NC4=O)C6=O)C5)C3)cnc2C(N)=O)cc1 (stereo partly drawn) [Compound 32, N—((R)-1-(5-carbamoyl-6-((4-(methylsulfonyl)phenyl)amino)pyrazin-2-yl)piperidin-3-yl)-2-((2-(2,6-dioxopiperidin-3-yl)-1,3-dioxoisoindolin-5-yl)methyl)-2-azaspiro[3.3]heptane-6-carboxamide]",7.5 to 50 nM
15,"CS(=O)(=O)c1ccc(Nc2nc(N3CCC[C@@H](NC(=O)[C@H]4[C@@H]5CN(CC6CCN(c7ccc8c(c7)C(=O)N(C7CCC(=O)NC7=O)C8=O)CC6)C[C@@H]54)C3)cnc2C(N)=O)cc1 (stereo partly drawn) [Compound 33, (1R,5S,6r)-N—((R)-1-(5-carbamoyl-6-((4-(methylsulfonyl)phenyl)amino)pyrazin-2-yl)piperidin-3-yl)-3-((1-(2-(2,6-dioxopiperidin-3-yl)-1,3-dioxoisoindolin-5-yl)piperidin-4-yl)methyl)-3-azabicyclo[3.1.0]hexane-6-carboxamide]",< 7.5 nM
16,"CS(=O)(=O)c1ccc(Nc2nc(N3CCC[C@@H](NC(=O)C4CC5CCC(C4)N5C4CCN(c5ccc6c(c5)C(=O)N(C5CCC(=O)NC5=O)C6=O)CC4)C3)cnc2C(N)=O)cc1 (stereo partly drawn) [Compound 41, N-[(3R)-1-{5-carbamoyl-6-[(4-methanesulfonylphenyl)amino]pyrazin-2-yl}piperidin-3-yl]-8-{1-[2-(2,6-dioxopiperidin-3-yl)-1,3-dioxoisoindol-5-yl]piperidin-4-yl}-8-azabicyclo[3.2.1]octane-3-carboxamide]",50 to 500 nM
17,"Cc1cc(Nc2nc(N3CCC[C@@H](NC(=O)N4CCC5(CC4)CCN(c4ccc6c(c4)C(=O)N(C4CCC(=O)NC4=O)C6=O)CC5)C3)cnc2C(N)=O)sn1 (stereo partly drawn) [Compound 12, N-[(3R)-1-{5-carbamoyl-6-[(3-methyl-1,2-thiazol-5-yl)amino]pyrazin-2-yl}piperidin-3-yl]-9-[2-(2,6-dioxopiperidin-3-yl)-1,3-dioxoisoindol-5-yl]-3,9-diazaspiro[5.5]undecane-3-carboxamide]",7.5 to 50 nM
18,"Cc1cc(Nc2nc(N3CCC[C@@H](NC(=O)N4CCN(CC5CCN(c6ccc7c(c6)C(=O)N(C6CCC(=O)NC6=O)C7=O)CC5)CC4)C3)cnc2C(N)=O)sn1 (stereo partly drawn) [Compound 23, 5-[(3R)-3-[4-({1-[2-(2,6-dioxopiperidin-3-yl)-1,3-dioxoisoindol-5-yl]piperidin-4-yl}methyl)piperazine-1-carbonylamino]piperidin-1-yl]-3-[(3-methyl-1,2-thiazol-5-yl)amino]pyrazine-2-carboxamide]",< 7.5 nM
